In US5422344A, “Method of treating retroviral infections in mammals” (The United States of America as represented by the …, priority 1990, dated 1995):
Read-outs that look alike come from different tables or passages of the source.

What was measured:
[1] = Cell number, viability (trypan blue dye exclusion) and growth of H9 cells; assay type: cell-based; conditions: human, h9 cells
H9 cells = test: as above; assay type: cell-based; conditions: for Cell No.: 7 days postinfection
[2] = system: HIV-IIIB (HIV-1) replication in H9 cells; test: HIV replication in cocultivation of H9/HIV-IIIB chronically infected cells with H9 cells; assay type: cell-based
Description: 10 H9/HIV-IIIB (A,D), 100 H9/HIV-IIIB (B,E) or 1000 H9/HIV-IIIB cells (C,F) were cocultivated with 10^5 H9 cells in the presence or absence of 0.01 μM (A,B), 0.2 μM (C) , 0.005 μM (D,E), or 0,005-0.01 μM (F) of CPT for 1 h (A,B,C) or 18h (D,E,F). RT activity was measured in the culture media 7,8, and 9 days post-infection and treatment.
Cocultivation of H9/HIV-IIIB Cells with Uninfected H9 Cells and CPT Treatment: Ten, 100 or 1,000 H9/HIV-IIIB cells were cocultivated with 10^5 H9 cells in the presence or absence of different CPT doses. Cells were incubated for 1 h at 37° C., pelleted, washed and resuspended in fresh media. RT activity in the culture media was measured seven, eight, and nine days after infections, as described above.
For a longer treatment period, H9/HIV-IIIB cells were cocultivated with H9 cells in the presence or absence of 0.005-0.01 μM CPT for 18 h at 37° C.
CPT Inhibition of HIV Replication in Cocultivation of H9/HIV-IIIB Chronically Infected Cells with H9 Uninfected Cells. Since it is likely that HIV infection in vivo involves cell to cell contact and virus production by previously infected cells, the ability of CPT to block the spread of HIV in uninfected H9 cells cocultivated with cells chronically infected with HIV was examined. The results shown in FIG. 2A indicate that 100% inhibition of HIV replication was observed when 10 infected cells were mixed with uninfected cells in the presence of 0.01 μM CPT for 1 h. […] However, increasing the CPT dose to 0.2 μM reduced HIV replication to 15% of control values when 1000 infected cells were mixed with 10^5 uninfected H9 cells (FIG. 2C).

[3] = system: Friend virus/spleen focus forming virus (SFFV); test: Inhibition of Friend virus disease in mice (spleen weight, IP); assay type: in vivo, male NFS mice; conditions: for Number Friend disease positive (spleen weight >0.2 g) / Spleen weight AVG.: 4 weeks
Excerpt: INHIBITION OF FRIEND VIRUS DISEASE IN MICE BY CAMPTOTHECIN. […] The Friend virus/spleen focus forming virus (SFFV) mouse model was used to test CPT in vivo. SFFV is a defective type C retrovirus which induces the rapid onset of erythroleukemia, characterized by severe splenomegaly, and death of the affected animal within 3-6 weeks after innoculation. A well characterized stock of SFFV, in complex with an amphotropic murine C-type virus which induced only a low incidence of lymphoid and myloid disease after a long latency, was injected into adult mice at viral dilutions which would be expected to induce Friend erythroleukemia in essentially 100% of infected mice.
Male NFS mice were injected IP with 0.5 ml of virus stock to which CPT, disolved in DMSO, was added. The average weight of a mouse was 24 g, and CPT was added from a stock at 10 mg/ml. DMSO was added to A, E and I viral inoculum at 2.8%, the maximum level. Animals were sacrificed 4 weeks after inoculation, and spleens were weighed to determine the incidence of Friend virus induced splenomegaly.

[4] = system: Spleen Focus Forming Virus (SFFV); test: Inhibition of disease induction in vivo by SFFV, IV or IP; design: species or system NFS mice; conditions: CPT 20 mg/kg; for # diseased mice (diseased/injected) / AVG. spleen WT.: 4 weeks
Description: Inhibition of Disease Induction In Vivo by Spleen Focus Forming Virus (SFFV) by Intravenous or Intraperitoneal Infection of CPT. In a repeat and extension of the previous experiment, NFS mice were injected either intraperitoneally or intravenously with dilutions of infectious virus stock in the presence or absence of CPT. Virus was mixed with stocks of CPT dissolved in DMSO at 10 mg/ml and adjusted so that mice were treated at 20 mg/kg. In samples without CPT, DMSO was added to an equivalent concentration (9.6%). In both IP and IV injections, 0.5ml was injected per mouse. Animals were monitored and sacrificed 4 weeks after injection. Spleens were weighed, and a spleen weight in excess of 0.2 gm was judged positive for SFFV disease.

[5] = system: lentivirus-associated topoisomerase; test: Inhibition of lentivirus-associated topoisomerase activity; assay type: biochemical, HIV and EIAV
eukaryotic topo I = conditions: Gupta et al. 1988; cited from earlier work
[6] = system: Simian Virus 40 DNA replication; conditions: Snapka 1986; cited from earlier work
mammalian cells = conditions: cytotoxic doses, Wall et al., cited from earlier work
[7] = group B, virus dil. 1/500, CPT 5 mg/kg IP
[8] = group C, virus dil. 1/500, CPT 10 mg/kg IP
[9] = group D, virus dil. 1/500, CPT 20 mg/kg IP
[10] = group F, virus dil. 1/2000, CPT 5 mg/kg IP
[11] = group G, virus dil. 1/2000, CPT 10 mg/kg IP
[12] = group H, virus dil. 1/2000, CPT 20 mg/kg IP
[13] = group J, no virus, CPT 5 mg/kg IP
[14] = group K, no virus, CPT 10 mg/kg IP
[15] = group L, no virus, CPT 20 mg/kg IP

For CC[C@@]1(O)C(=O)OCc2c1cc1n(c2=O)Cc2cc3ccccc3nc2-1 [CPT, Camptothecin], the viability at 168 h, 0.005 µM ([1]; 0.005 μM CPT, 7 days postinfection) was 100%, the viability at 168 h, 0.01 µM ([1]; 0.01 μM CPT, 7 days postinfection) was 100% and the viability at 168 h, 0.02 µM ([1]; 0.02 μM CPT, 7 days postinfection) was 100%. It also gave a viability at 168 h, 0.05 µM ([1]; 0.05 μM CPT, 7 days postinfection) of 100%, a viability at 168 h, 0.1 µM ([1]; 0.1 μM CPT, 7 days postinfection) of 100% and a viability at 168 h, 0.2 µM ([1]; 0.2 μM CPT, 7 days postinfection) of 100%. For the same compound, the selectivity ratio ([1]; data not shown, read-out: anti-HIV doses vs cytotoxic doses (times lower)) was 400, the “Cell No.” value (H9 cells; 0.005 μM CPT) was 2 × 10^6 and the “Cell No.” value (H9 cells; 0.01 μM CPT) was 2.2 × 10^6. For the same compound, the “Cell No.” value (H9 cells; 0.02 μM CPT) was 4 × 10^5, the “Cell No.” value (H9 cells; 0.05 μM CPT) was 1 × 10^5 and the “Cell No.” value (H9 cells; 0.1 μM CPT) was 1 × 10^5. The “Cell No.” value (H9 cells; 0.2 μM CPT) was 1 × 10^5, the “effect on cell viability or cell growth” value (H9 cells; 0.005-0.02 μM CPT) was “no effect on cell viability or cell growth was detected” and the “effect on cell growth” value (H9 cells; 0.05-0.2 μM CPT) was “cell growth was arrested”. The “effect on cell viability” value (H9 cells; 0.05-0.2 μM CPT, trypan blue dye exclusion) was “no effect on cell viability was detected”, the activity at 0.2 µM ([2]; Human immunodeficiency virus 1, IIIB, H9, 1 h, read-out: HIV replication reduced to % of control values) was 15% and the inhibition at 0.01 µM ([2]; Human immunodeficiency virus 1, IIIB, H9, 1 h, read-out: inhibition of HIV replication, 10 infected cells, 0.01 μM CPT, 1 h) was 100%. The inhibition at 0.01 µM ([2]; Human immunodeficiency virus 1, IIIB, H9, 1 h, read-out: inhibition of HIV replication, 100 infected cells, 0.01 μM CPT, 1 h) was 50%, the inhibition at 0.01 µM ([2]; Human immunodeficiency virus 1, IIIB, H9, 1 h, read-out: inhibition of HIV replication, 1000 infected cells, 0.01 μM CPT, 1 h (data not shown)) was 13% and the inhibition at 0.005 µM ([2]; Human immunodeficiency virus 1, IIIB, H9, 18 h, read-out: inhibition of HIV replication (RT activity), 10 or 100 infected cells, 0.005 μM CPT, 18 h, days 7, 8 and 9) was 98 to 100%. The “inhibitory effect on HIV replication” value ([2]; larger numbers of infected cells, 0.2 μM CPT, or 0.005 μM for 18h) was “strong inhibitory effect on HIV replication”, the “Number Friend disease positive (spleen weight >0.2 g)” value (“Number Friend disease positive” below) [3, 7] was 4/5 and the “Spleen weight AVG.” value [3, 7] was 0.78 g. For the same compound, the “Number Friend disease positive” value [3, 8] was 3/5, the “Spleen weight AVG.” value [3, 8] was 0.84 g and the “Number Friend disease positive” value [3, 9] was 4/5. For the same compound, the “Spleen weight AVG.” value [3, 9] was 0.28 g, the “Number Friend disease positive” value [3, 10] was 1/5 and the “Spleen weight AVG.” value [3, 10] was 0.22 g. The “Number Friend disease positive” value [3, 11] was 0/5, the “Spleen weight AVG.” value [3, 11] was 0.18 g and the “Number Friend disease positive” value [3, 12] was 1/5. For the same compound, the “Spleen weight AVG.” value [3, 12] was 0.22 g, the “Number Friend disease positive” value [3, 13] was 0/5 and the “Spleen weight AVG.” value [3, 13] was 0.12 g. For the same compound, the “Number Friend disease positive” value [3, 14] was 0/5, the “Spleen weight AVG.” value [3, 14] was 0.10 g and the “Number Friend disease positive” value [3, 15] was 0/5. The “Spleen weight AVG.” value [3, 15] was 0.12 g, the “induction of erythroleukemia by SFFV” value ([3]; in vivo) was “blocks the induction of erythroleukemia by SFFV in vivo” and the “effect on number of mice with enlarged spleens and average spleen weight” value ([3]; vs control, virus infected mice) was “reduced the number of mice showing enlarged spleens and the average spleen weight”. For the same compound, the “# diseased mice (diseased/injected)” value ([4]; no virus, IP) was 0/5, the “AVG. spleen WT.” value ([4]; no virus, IP) was 0.10 g and the “# diseased mice (diseased/injected)” value ([4]; no virus, IV) was 0/5. For the same compound, the “AVG. spleen WT.” value ([4]; no virus, IV) was 0.10 g, the “injected mice died within 24 hours of causes unrelated to viral disease” value ([4]; virus 1/500, IP) was 4/5 and the “# diseased mice (diseased/injected)” value ([4]; virus 1/500, IP) was 0/1. The “AVG. spleen WT.” value ([4]; virus 1/500, IP) was 0.20 g, the “# diseased mice (diseased/injected)” value ([4]; virus 1/500, IV) was 0/5 and the “AVG. spleen WT.” value ([4]; virus 1/500, IV) was 0.10 g. For the same compound, the “injected mice died within 24 hours of causes unrelated to viral disease” value ([4]; virus 1/1000, IP) was 3/5, the “# diseased mice (diseased/injected)” value ([4]; virus 1/1000, IP) was 0/2 and the “AVG. spleen WT.” value ([4]; virus 1/1000, IP) was 0.15 g. The “# diseased mice (diseased/injected)” value ([4]; virus 1/1000, IV) was 0/5, the “AVG. spleen WT.” value ([4]; virus 1/1000, IV) was 0.12 g and the lentivirus-associated topoisomerase activity [5] was “inhibited this activity”. The “inhibition of eukaryotic topo I” value (eukaryotic topo I) was “known specific inhibitor of eukaryotic topo I”, the “Simian Virus 40 DNA replication” value [6] was “selectively interferes with Simian Virus 40 DNA replication” and the “fragmentation of DNA” value (mammalian cells; mammalian cells) was “causes rapid and reversible fragmentation of DNA in mammalian cells”. For the same compound, the “RNA and DNA synthesis” value (mammalian cells) was “inhibits RNA and DNA synthesis”.
